“Also recorded” adds a separate entry of the source.

The values below come from patent publication US20140142170A1, “COMPOSITION AND METHOD FOR INFLUENCING ENERGY METABOLISM AND TREATING METABOLIC AND OTHER DISORDERS” (SIRTUIN VALLEY OY, priority 2010, published 2014).

One assay concerns PGC-1α. In words: PGC-1α protein expression, immunoblot and densitometry in 3T3 L1 preadipocytes. Format: cell-based. As to conditions: 60 μM, 24 hours; for PGC-1α protein expression, Derivative vs. GR24: derivative compared to GR24 (=100%). How it is done: 3T3L1 cells were purchased from American Type Culture Collection (Manassas, Va., USA) and cultured in DMEM media containing 4.5 g/l glucose supplemented with 10% fetal bovine serum (Hyclone), 2 mM L-glutamine (Gibco), 100 U/ml penicillin, and 100 μg/ml streptomycin (Gibco). The cells were cultured at 37° C. in a humidified atmosphere with 10% CO2. […]
(§1) Protein concentrations were measured using a BCA (bicinchoninic acid) protein assay kit (Cat.#23225; Pierce, Rockford, Ill.). Twenty (20) μg/lane of total cellular protein samples containing NuPAGE LDS sample buffer (Invitrogen) and reducing agent were loaded into 4-12% NuPAGE Bis-Tris gels (Invitrogen), subjected to gel electrophoresis, and transferred to polyvinylidene fluoride membranes (Amersham). For SIRT1 proteins, membranes were blocked in 0.05% TBS-Tween with 3% milk for 1 hour, incubated overnight at +4° C. with SIRT1 primary antibodies (Cat.#07-131, Millipore). For phospho-AMPKα and AMPKα proteins, blocking was done for 1 hour in 0.1% TBS-Tween with 5% milk. The membranes were incubated overnight at +4° C. with phospho-AMPKα (Cat. #2535, Cell Signaling) and AMPKα (Cat.#2532, Cell Signaling) primary antibodies. Horseradish peroxidase-conjugated anti-rabbit antibodies (Cat. #NA934V GE Health Care, Amersham, U.K) were used as secondary antibodies. For α-tubulin (loading control), membranes were blocked in 0.05% PBS-Tween with 3% milk for 1 hour, incubated with α-tubulin (Cat.# B-5-1-2, Sigma) primary antibodies for 1 hour at room temperature and horseradish peroxidase-conjugated anti-mouse (Cat. # NA 931V GE Health Care, Amersham, U.K.) IgG antibodies were used as secondary antibodies.
(§2) The membranes were developed using chemiluminescence (ECL plus, GE Health Care), and images were captured in an Image Quant RT-ECL machine (version 1.0.1; GE Health Care). Densitometry and quantification of the bands were done by applying Quantity One software (Bio-Rad). The expression levels of the proteins were normalized to α-tubulin protein levels.
PGC-1α as an indicator of SIRT1 activity: PGC-1α has been extensively described as a master regulator of mitochondrial biogenesis. […] When SIRT1 protein expression is induced, it interacts with and deacetylates PGC-1α in an NAD-dependent manner. Thus SIRT1 acts as a modulator of PGC-1a (Rodgers J T et al, Nature 2005). The effects of resveratrol, a nonselective SIRT1 activator, were associated with an induction of genes for oxidative phosphorylation and mitochondrial biogenesis, and were largely explained by a resveratrol-mediated decrease in PGC-1α acetylation and an increase in PGC-1α activity (Lagouge M, Cell 2006). Therefore, PGC-1α protein expression serves as an indicator of SIRT1 activity.
3T3L1 cells were purchased from American Type Culture Collection (Manassas, Va., USA) and cultured in DMEM media containing 4.5 g/l glucose supplemented with 10% fetal bovine serum (Hyclone), 2 mM L-glutamine (Gibco) and 100 U/ml penicillin, 100 μg/ml streptomycin (Gibco). The cells were cultured at 37° C. in a humidified atmosphere with 10% CO2. 3T3L1 preadipocytes were plated at 1×10^5 cells/well in 6 well plates and incubated at 37° C. in a humidified atmosphere with 10% CO2. The media was removed after 24 hours and the cells were treated with 60 μM GR24 or with 60 μM 1A, 1B, 5A, 5B, 6A, or 7A and incubated for 24 hours at 37° C. in a humidified atmosphere with 10% CO2. In all experiments, the controls were treated with the same volume of DMSO as was used to dissolve compounds in compound-treated cells to show and ensure that the actual change in protein expression in different treatments was only due to the compounds […]. The media was removed, cells were washed with PBS and cell lysates were collected on ice. Proteins were extracted using RIPA buffer along with protease and phosphatase inhibitors. Lysates were centrifuged for 30 min at high speed; supernatant was collected and stored at −70° C. until further analysis.

The test system of assay [1] is SIRT1. Put plainly: SIRT1 protein expression, immunoblot and densitometry in 3T3 L1 preadipocytes. The class given is cell-based. As to conditions: 3T3 L1 preadipocytes, 60 μM, 24 hours; for SIRT1 protein expression, Derivative vs. GR24: derivative compared to GR24 (=100%). How it is done:
(§3) 3T3L1 cells were purchased from American Type Culture Collection (Manassas, Va., USA) and cultured in DMEM media containing 4.5 g/l glucose supplemented with 10% fetal bovine serum (Hyclone), 2 mM L-glutamine (Gibco), 100 U/ml penicillin, and 100 μg/ml streptomycin (Gibco). The cells were cultured at 37° C. in a humidified atmosphere with 10% CO2.
(§4) The 3T3L1 cells were plated at 6×10^4 cells/well in 12 well plates and incubated at 37° C. in a humidified atmosphere with 10% CO2. The media was removed after 24 hours and the cells were treated with 60 μM GR24 individually and in combination with 60 resveratrol and 60 μM pinosylvin, and incubated for 24 hours at 37° C. in a humidified atmosphere with 10% CO2. The media was removed, cells were washed with PBS, and cell lysates were collected on ice. Proteins were extracted using RIPA buffer along with protease and phosphatase inhibitors. Lysates were centrifuged for 30 min at high speed; supernatant was collected and stored at […] until further analysis. The vehicle controls were 3T3 L1 cells without any treatment with drugs or other compounds. The drugs or compounds that were used in all the experiments were dissolved or diluted in dimethylsulfoxide (DMSO) as diluent. In all experiments, the controls were treated with the same volume of DMSO as was used to dissolve drugs or compounds in compound-treated cells to show and ensure that the actual change in protein expression in different treatments was due solely to the compounds or combination of compounds and not to the DMSO.
as §1, §2
3T3L1 cells were purchased from American Type Culture Collection (Manassas, Va., USA) and cultured in DMEM media containing 4.5 g/l glucose supplemented with 10% fetal bovine serum (Hyclone), 2 mM L-glutamine (Gibco) and 100 U/ml penicillin, 100 μg/ml streptomycin (Gibco). The cells were cultured at 37° C. in a humidified atmosphere with 10% CO2. 3T3L1 preadipocytes were plated at 1×10^5 cells/well in 6 well plates and incubated at 37° C. in a humidified atmosphere with 10% CO2. […] In all experiments, the controls were treated with the same volume of DMSO as was used to dissolve compounds in compound-treated cells to show and ensure that the actual change in protein expression in different treatments was only due to the compounds DMSO. […]

Assay [2] relates to mitochondria of 3T3L1 preadipocytes. Put plainly: Mitochondrial staining with MitoTracker green, confocal microscopy. Format: cell-based. As to conditions: 60 μM, 24 hours. Here is the method: The 3T3L1 preadipocytes were plated onto Ibidi u-slide 8 well plates at 1.6×10^4 cells/well and incubated at 37° C. in a humidified atmosphere with 10% CO2. The media was removed after 24 hours, the cells were treated with 60 μM GR24 and incubated for 24 hours at 37° C. in a humidified atmosphere with 10% CO2. After 24 hours of treatment, staining of mitochondria was done using 200 nM MitoTracker Mitochondrion-Selective Probes (Green FM probes Cat.#M7514, Invitrogen) according to the manufacturer's instructions. The cells were observed using a confocal microscope and images were taken at 40× oil immersion.
Preadipocytes were treated with DMSO (Vehicle control) (FIG. 5A), 60 μM resveratrol (FIG. 5B) or 60 μM strigolactone analog GR24 (FIG. 5C) for 24 hours. Next, preadipocytes were stained with MitoTracker green and observed under a confocal microscope at 40× oil immersion. […] The white oval shaped structures are nucleus and the white thread-like structures around the nucleus in the cytoplasm are mitochondria. When compared to the control, there was an increase in mitochondrial biogenesis represented by elongated mitochondria, and an increase in mitochondrial activation represented by the intensity of fluorescence, in cells treated with resveratrol and GR24. […] Thus, GR24 enhances both biogenesis and activity of mitochondria, which is necessary to generate ATP.

In another assay the test system is phospho-AMPK. In words: phospho-AMPK expression / AMPK activation, immunoblot in 3T3 L1 preadipocytes. Format: cell-based. As to conditions: 3T3 L1 preadipocytes, 60 μM, 24 hours. Here is the method:
as §3
as §4, with “The media was removed after 24 hours and the cells were treated with 60 μM GR24 individually and in combination with 60 resveratrol and 60 μM pinosylvin, and incubated for 24 hours at 37° C. in a humidified atmosphere with 10% CO2.” left out
as §1, §2

For assay [3], the target named is T1, SIRT1 (Mus musculus, UniProt Q923E4).
T1 construct: host or cells: mice (in vivo)
T1 sequence (Q923E4 1-737): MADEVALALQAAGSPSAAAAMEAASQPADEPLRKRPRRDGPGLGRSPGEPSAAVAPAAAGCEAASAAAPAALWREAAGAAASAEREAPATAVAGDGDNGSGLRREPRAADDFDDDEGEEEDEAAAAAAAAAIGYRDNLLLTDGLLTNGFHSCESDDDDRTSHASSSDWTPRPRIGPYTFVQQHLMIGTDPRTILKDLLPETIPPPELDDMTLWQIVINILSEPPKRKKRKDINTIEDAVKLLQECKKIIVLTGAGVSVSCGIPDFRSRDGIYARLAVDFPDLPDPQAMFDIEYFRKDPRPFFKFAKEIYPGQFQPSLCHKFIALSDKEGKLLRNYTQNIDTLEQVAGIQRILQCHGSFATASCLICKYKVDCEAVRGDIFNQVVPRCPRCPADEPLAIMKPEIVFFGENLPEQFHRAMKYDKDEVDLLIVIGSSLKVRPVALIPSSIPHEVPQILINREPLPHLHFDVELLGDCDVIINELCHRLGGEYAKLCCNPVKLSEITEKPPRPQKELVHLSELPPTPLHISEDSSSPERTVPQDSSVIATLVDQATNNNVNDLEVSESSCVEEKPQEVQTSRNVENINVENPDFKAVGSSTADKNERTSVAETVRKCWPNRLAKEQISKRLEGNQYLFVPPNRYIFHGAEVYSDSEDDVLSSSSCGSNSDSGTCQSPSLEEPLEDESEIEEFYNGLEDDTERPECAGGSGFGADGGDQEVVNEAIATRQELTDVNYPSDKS
The settings on record: mice; cited from earlier work.

For the next assay, the system named is phospho-ACC. Put plainly: phospho-ACC expression, immunoblot in 3T3 L1 preadipocytes. The class given is cell-based. The settings on record: 3T3 L1 preadipocytes, 60 μM, 24 hours.

`CC1=C[C@H](O/C=C2/C(=O)O[C@H]3c4c(C)cccc4C[C@@H]23)OC1=O` [Compound 5B]: in the assay on PGC-1α, the “PGC-1α protein expression compared to control (100%)” value (from here on “PGC-1α protein expression … (100%)”) amounted to 5B 327% and the “PGC-1α protein expression, Derivative vs. GR24” value was “+48%”. Also, in the assay with SIRT1 [1], the “SIRT1 protein expression compared to control (100%)” value (“SIRT1 protein expression … (100%)” for short) amounted to 5B 327% and the “SIRT1 protein expression, Derivative vs. GR24” value is “+48%”.
As for `CCC1=C[C@H](O/C=C2/C(=O)O[C@H]3c4ccccc4C[C@@H]23)OC1=O` [Compound 1B], in the assay with PGC-1α, the “PGC-1α protein expression … (100%)” value was found to be 1B 215% and the “PGC-1α protein expression, Derivative vs. GR24” value is reported as “+31%”. In the assay with SIRT1 [1], the “SIRT1 protein expression … (100%)” value was 1B 215% and the “SIRT1 protein expression, Derivative vs. GR24” value was “+31%”.
As for `COc1cccc2c1[C@H]1OC(=O)/C(=C/O[C@H]3C=C(C)C(=O)O3)[C@H]1C2` [Compound 6A], in the assay with PGC-1α, the “PGC-1α protein expression … (100%)” value is 6A 206% and the “PGC-1α protein expression, Derivative vs. GR24” value is reported as “+38%”. In the assay with SIRT1 [1], the “SIRT1 protein expression … (100%)” value was 6A 206% and the “SIRT1 protein expression, Derivative vs. GR24” value is “+38%”.
As to `COc1ccc(C)c2c1C[C@@H]1/C(=C\O[C@H]3C=C(C)C(=O)O3)C(=O)O[C@H]21` [Compound 7A], in the assay on PGC-1α, the “PGC-1α protein expression … (100%)” value is given as 7A 218% and the “PGC-1α protein expression, Derivative vs. GR24” value is listed as “+30%”. For the same compound, in the assay with SIRT1 [1], the “SIRT1 protein expression … (100%)” value is 7A 218% and the “SIRT1 protein expression, Derivative vs. GR24” value was “+30%”.
Consider `CCC1=C[C@H](O/C=C2/C(=O)O[C@@H]3c4ccccc4C[C@H]23)OC1=O` [Compound 1A], for which, in the assay on PGC-1α, the “PGC-1α protein expression … (100%)” value was determined as 1A 186% and the “PGC-1α protein expression, Derivative vs. GR24” value was “+11%”. Besides, in the assay on SIRT1 [1], the “SIRT1 protein expression … (100%)” value is 1A 186% and the “SIRT1 protein expression, Derivative vs. GR24” value is listed as “+11%”.
For the compound `Oc1ccc(/C=C/c2cc(O)cc(O)c2)cc1` [resveratrol, 3,5,4″-trans-trihydroxystilbene], in assay [2], the “mitochondrial activation (intensity of fluorescence) compared to control” value is on record as “increase” and the “mitochondrial biogenesis (elongated mitochondria) compared to control” value is reported as “increase”. Besides, in the assay on phospho-AMPK, the “phospho-AMPK expression compared to control” value is on record as “significant increase; also recorded: increased”. In addition, at SIRT1 [3], the SIRT1 activity result is listed as “increases” and the “genes responsible for mitochondrial biogenesis” value is “stimulates”. Besides, in the assay on phospho-ACC, the “phospho-ACC expression (phosphorylation of ACC) compared to control” value is given as “no change”.
